These results are taken from patent US12384753B2, “17-beta-hydroxysteroid dehydrogenase type 13 inhibitors and methods of use thereof” (Enanta Pharmaceuticals, Inc., priority 2021, dated 2025).

Chain of Recombinant human HSD17B13 (Q7Z5P4 20-300): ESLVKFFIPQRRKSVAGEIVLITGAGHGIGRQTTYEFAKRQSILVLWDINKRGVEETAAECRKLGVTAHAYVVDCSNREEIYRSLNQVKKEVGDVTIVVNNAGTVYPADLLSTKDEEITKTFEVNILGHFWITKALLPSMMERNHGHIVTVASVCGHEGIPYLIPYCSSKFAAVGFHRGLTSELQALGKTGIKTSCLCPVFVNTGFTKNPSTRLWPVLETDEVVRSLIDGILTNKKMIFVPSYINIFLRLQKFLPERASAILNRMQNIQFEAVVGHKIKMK

The target of the experiment is Recombinant human HSD17B13 (Homo sapiens (Human), UniProt Q7Z5P4). Put plainly: HSD17B13 rapid-fire mass spectrometry assay (RF/MS assay). It counts as biochemical. Particulars: inhibition of HSD17B13; LTB4 10 μM, NAD+ 0.5 mM, RT 3 h; IC50 ranges A-E. The source says:
HSD17B13 rapid-fire mass spectrometry assay (RF/MS assay). Recombinant human HSD17B13 was expressed and purified from sf9 cells at Charles River Labs (Saffron Walden, UK). Leukotriene B4 (Catalog #71160-24-2) and 12-oxoleukotriene B4 (Catalog #20140) were purchased from Cayman Chemicals (Ann Arbor, Michigan.). NAD+ (Catalog #N8285), BSA (Catalog #A7030), DMSO (Catalog #D2650), and Tween-20 (Catalog #11332465001) were purchased from Sigma (St. Louis, MO). Formic acid (Catalog #28905) was from ThermoFisher Scientific and 384 deep well PP microplates (Catalog #784261) were from Greiner Bio-One. In a typical IC50 assay performed in a 384w PP microplate, test compounds (0-100 μM) were incubated with HSD17B13 (80 nM), LTB4 (10 μM), and NAD^+ (0.5 mM) in 10 μL assay buffer (20 mM Tris (pH 7.5), BSA (0.005%), and Tween-20 (0.01%)) at RT for 3 h. The assays were quenched by adding 20 μL of 0.15% aqueous formic acid and the plates were frozen at −80° C. RF/MS analysis was performed at PureHoney Technologies (Billerica, MA) on a RapidFire RF300 system (Agilent Technologies, Inc.) coupled to an API 4000 triple quadrupole mass spectrometer (Sciex) equipped with Agilent RapidFire cartridge type A (C4). The mobile phase was 0.09% formic acid and 0.01% trifluoracetic acid in water (Buffer A) and 0.09% formic acid and 0.01% trifluoracetic acid in 80% aqueous acetonitrile (Buffer B). The RapidFire method conditions were the following: 250 ms aspirate, 3000 ms load/desalt, 4000 ms elute, and 500 ms re-equilibrate. RF-MS/MS was performed in negative polarity (−4500 V), the source temperature was 650° C., and gas 1 and gas 2 settings for nitrogen were set to 50. The curtain gas and collision gas were also nitrogen and were set to 20 and 12, respectively. Leukotriene B4 (335.3) and 12-oxoLeukotriene B4 (333.3) SRM transitions were optimized with Discovery Quant software and extracted ion counts for these analytes were determined.
Data Analysis. HSD17B13 enzyme activity was measured as percent conversion of extracted ion counts and normalized to high and low controls to determine percent residual activity at various concentrations of test compounds. Data were fitted to normalized activity (variable slope) versus concentration fit in GraphPad Prism 7 to determine IC50. All experiments were run in duplicates.
By using above method, the inhibition of HSD17B13 was evaluated for the compounds of Formula (I). IC50 ranges are as follows: A=IC50<0.100 μM; B=0.100 μM<IC50<0.500 μM; C=0.500 μM<IC50<1 μM; D=1 μM<IC50<100 μM; E=IC50>100 μM
For orientation: IC50 means the concentration at which inhibition is half-maximal. `O=C(O)c1cc(NS(=O)(=O)c2cnc(-c3ccc(F)cc3)s2)n(-c2ccccc2)n1` [Example 92]: the IC50 fell in the range of 1000 to 100000 nM.

With `COc1cc(C(=O)O)ccc1NS(=O)(=O)c1csc(N2CCN(S(=O)(=O)c3ccc(C)cc3)CC2)n1` [Example 290], the IC50 fell in the range of 1000 to 100000 nM.

For `O=S(=O)(Nc1ccc(-c2nnn[nH]2)cc1)c1cnc(-c2ccc(F)cc2)s1` [Example 34], the IC50 fell in the range of 1000 to 100000 nM.

Consider `COc1cc(C(=O)O)c(F)cc1NS(=O)(=O)c1csc(-c2ccc(C3=CCC(C(F)(F)F)CC3)cc2C(F)(F)F)n1` (stereo not shown) [Example 601], for which the IC50 was < 100 nM.

For the compound `COc1cc(C(=O)O)ccc1NS(=O)(=O)c1csc(N2CCN(Cc3ccc(OC(F)(F)F)cc3)CC2)n1` [Example 308], the IC50 was in the range of 100 to 500 nM.

For the compound `CN(C)c1cc(C(=O)O)ccc1NS(=O)(=O)c1csc(-c2ccc(C3CCC(C)(C)CC3)cc2C(F)(F)F)n1` [Example 697], the IC50 fell in the range of 1000 to 100000 nM.

On to `COc1cc(C(=O)O)c(F)cc1NS(=O)(=O)c1csc(-c2ccc(C3CC4C(C3)C4(C)C)cc2)n1` (stereo not shown) [Example 535], for which the IC50 is < 100 nM.

On to `COc1cc(C(=O)O)c(F)cc1NS(=O)(=O)c1csc(-c2ccc(C3=CCC(C)(C)CC3)c(F)c2C(F)F)n1` [Example 582], for which the IC50 was < 100 nM.

For `COc1cc(C(=O)O)c(F)cc1NS(=O)(=O)c1csc(-c2ccc([C@H]3CC[C@@H](C(C)C)CC3)c(F)c2C)n1` [Example 805], the IC50 was < 100 nM.

For the compound `COc1cc(C(=O)O)ccc1NS(=O)(=O)c1csc(N2CCCC(c3ccccc3)C2)n1` (stereo not shown) [Example 269], the IC50 lay in the range of 100 to 500 nM.

Turning to `O=C(O)c1cc2c(cc1F)CCN(S(=O)(=O)c1ccc(F)cc1)C2` [Example 6, 6-fluoro-2-((4-fluorophenyl)sulfonyl)-1,2,3,4-tetrahydroisoquinoline-7-carboxylic acid], the IC50 is 1000 to 100000 nM.

In the case of `COc1cc(C(=O)O)ccc1NS(=O)(=O)c1ccc(Oc2ccccc2OC)cc1` [Example 134], the IC50 was 500 to 1000 nM.

For the compound `COc1cc(C(=O)O)ccc1NS(=O)(=O)c1ccc(-c2ccc(C(F)(F)F)cc2)s1` [Example 178], the IC50 fell in the range of 100 to 500 nM.

On to `COc1cc(C(=O)O)c(F)cc1NS(=O)(=O)c1coc(-c2ccc(C3CCC(C)(C)CC3)cc2C(F)(F)F)n1` [Example 676], for which the IC50 was < 100 nM.

As for `COc1ccc(C#Cc2nc(S(=O)(=O)Nc3cc(F)c(C(=O)O)cc3OC)cs2)cc1` [Example 221], the IC50 was < 100 nM.

Turning to `COc1cc(C(=O)O)c(F)cc1NS(=O)(=O)c1coc(-c2ccc([C@H]3CC[C@@H](O)CC3)cc2)n1` [Example 623], the IC50 is 100 to 500 nM.

As for `COc1cc(C(=O)O)ccc1NS(=O)(=O)c1ccc(-c2ccc(-c3ccc(OC(F)(F)F)cc3)cc2)s1` [Example 219], the IC50 lay in the range of 100 to 500 nM.

For `O=C(O)c1ccc(NS(=O)(=O)c2ccc(F)cc2)cc1` [Example 3], the IC50 is 1000 to 100000 nM.

Turning to `COc1cc(C(=O)O)ccc1NS(=O)(=O)c1ccc(-c2cccc(-c3ccc(C(F)(F)F)cc3)c2)s1` [Example 252], the IC50 was 500 to 1000 nM.

As to `CC[C@H]1CC[C@H](c2ccc(-c3nc4cc(S(=O)(=O)Nc5cc(F)c(C(=O)O)cc5OC)ccc4o3)cc2)CC1` [Example 670, 4-((2-(4-((1r,4r)-4-ethylcyclohexyl)phenyl)benzo[d]oxazole)-5-sulfonamido)-2-fluoro-5-methoxybenzoic acid], the IC50 was 100 to 500 nM.

Take `O=C(O)c1ccc2c(c1)CCCN2S(=O)(=O)c1ccc(F)cc1` [Example 7]: the IC50 was 1000 to 100000 nM.

As for `COc1cc(C(=O)O)ccc1NS(=O)(=O)c1ccc(C2=CCN(c3ccccc3)CC2)cc1F` [Example 341], the IC50 was in the range of 500 to 1000 nM.

As for `COc1cc(C(=O)O)ccc1NS(=O)(=O)N1CCC(c2ccccn2)CC1` [Example 311], the IC50 lay within 1000 to 100000 nM.

Take `O=C(O)c1ccc(NS(=O)(=O)c2cnc(-c3ccc(F)cc3)s2)c(C(F)F)c1` [Example 173]: the IC50 lay in the range of 1000 to 100000 nM.

For the compound `COc1cc(C(=O)O)ccc1NS(=O)(=O)c1cccc(-c2ccc([C@H]3CC[C@H](C(C)(C)C)CC3)cc2)c1F` [Example 478, 4-((4′-((1r,4r)-4-(tert-butyl)cyclohexyl)-2-fluoro-[1,1′-biphenyl])-3-sulfonamido)-3-methoxybenzoic acid], the concentration for half-maximal inhibition (IC50) was 100 to 500 nM.

`O=C(O)c1ccc(NS(=O)(=O)c2cnc(-c3ccc(F)cc3)s2)cn1` [Example 26]: the IC50 fell in the range of 1000 to 100000 nM.

Turning to `COc1cc(C(=O)O)ccc1NS(=O)(=O)c1csc(-c2ccc(-c3ccccc3)c(F)c2)n1` [Example 302], the IC50 lay within 100 to 500 nM.

Consider `O=C(O)c1ccc(NS(=O)(=O)c2csc(-c3ccc(O)cc3)n2)cc1` [Example 63], for which the IC50 lay in the range of 500 to 1000 nM.

Regarding `COc1cc(C(=O)O)ccc1NS(=O)(=O)c1ccc(-c2ccc(-c3ccc(O)cc3)cc2)s1` [Example 207], the IC50 fell in the range of 500 to 1000 nM.

As to `COc1cc(C(=O)O)c(F)cc1NS(=O)(=O)c1csc(-c2ccc(C3CCC4(CC3)CC4)cc2)n1` [Example 778], the IC50 was < 100 nM.

Consider `COc1cc(C(=O)O)ccc1NS(=O)(=O)c1ccc(-c2cnc(-c3ccccc3)s2)c(F)c1` [Example 332], for which the IC50 lay in the range of 100 to 500 nM.

As for `COc1cc(C(=O)O)c(F)cc1NS(=O)(=O)c1cnc(-c2ccc([C@H]3CC[C@H](C(C)(C)C)CC3)cc2)s1` [Example 721], the IC50 was 100 to 500 nM.

Take `COc1cc(C(=O)O)ccc1NS(=O)(=O)c1csc(-c2cccc3ccccc23)n1` [Example 151]: the IC50 was 500 to 1000 nM.

Consider `COc1cc(C(=O)O)ccc1NS(=O)(=O)c1csc(/C=C/c2ccccc2)n1` [Example 167], for which the IC50 was 100 to 500 nM.

Turning to `COc1cc(C(=O)O)ccc1NS(=O)(=O)c1csc(-c2cccc(C)c2C)n1` [Example 156], the IC50 fell in the range of 100 to 500 nM.

`COc1cc(C(=O)O)ccc1NS(=O)(=O)c1csc(C#Cc2cc(C(F)(F)F)[nH]c(=O)c2)n1` [Example 247, 3-methoxy-4-((2-((2-oxo-6-(trifluoromethyl)-1,2-dihydropyridin-4-yl)ethynyl)thiazole)-4-sulfonamido)benzoic acid]: the IC50 is 100 to 500 nM.

For the compound `COc1cc(C(=O)O)ccc1NS(=O)(=O)c1cnc(-c2ccc(-c3ccc4c(c3)CCCC4)cc2)s1` [Example 427], the IC50 was 100 to 500 nM.

For the compound `COc1cc(C(=O)O)c(F)cc1NS(=O)(=O)c1csc(-c2ccc(C3CCC(C)(C)CC3)c(F)c2C)n1` [Example 566], the IC50 was < 100 nM.

As to `COc1cc(C(=O)O)ccc1NS(=O)(=O)c1ccc(-c2csc(C)n2)cc1` [Example 298], the IC50 was 1000 to 100000 nM.

For the compound `CCOc1c(C2=CCC(C)(C)CC2)ccc(-c2nc(S(=O)(=O)Nc3cc(F)c(C(=O)O)cc3OC)cs2)c1F` [Example 568], the IC50 was < 100 nM.

On to `COc1cc(C(=O)O)c(F)cc1NS(=O)(=O)c1csc(-c2ccc(C3CC4CCC3C4)cc2)n1` (stereo not shown) [Example 592], for which the IC50 lay in the range of 100 to 500 nM.

Take `COc1cc(C(=O)O)ccc1NS(=O)(=O)c1csc(-c2ccc(F)c3ccccc23)n1` [Example 88]: the IC50 is 1000 to 100000 nM.

As for `COc1cc(C(=O)O)ccc1NS(=O)(=O)c1ccc(-c2ccc(F)cc2)s1` [Example 174], the IC50 is < 100 nM.

Consider `COc1cc(C(=O)O)c(F)cc1NS(=O)(=O)c1csc(-c2ccc(C3=CCC(C(F)(F)F)CC3)c(F)c2C)n1` (stereo not shown) [Example 599], for which the IC50 was < 100 nM.

In the case of `COc1cc(OC(F)F)ccc1NS(=O)(=O)c1cnc(-c2ccc(F)cc2)s1` [Example 122], the IC50 was 1000 to 100000 nM.

Regarding `COc1cc(C(=O)O)c(F)cc1NS(=O)(=O)c1ccc2sc(-c3ccc(-c4ccccc4)cc3)nc2c1` [Example 668], the IC50 lay within 100 to 500 nM.

Turning to `COc1cc(C(=O)O)c(F)cc1NS(=O)(=O)c1csc(-c2ccc(C3CCC(C)(C)CC3)c3[nH]ncc23)n1` [Example 541], the IC50 is < 100 nM.

As for `COc1cc(C(=O)O)c(F)cc1NS(=O)(=O)c1cnn(-c2ccc([C@H]3CC[C@H](C(F)(F)F)CC3)cc2)c1` [Example 686, 2-fluoro-5-methoxy-4-((1-(4-((1r,4r)-4-(trifluoromethyl)cyclohexyl)phenyl)-1H-pyrazole)-4-sulfonamido)benzoic acid], the IC50 lay within 100 to 500 nM.

Take `CS(=O)(=O)c1cc(C(=O)O)ccc1NS(=O)(=O)c1cnc(-c2ccc(F)cc2)s1` [Example 115]: the IC50 was 1000 to 100000 nM.
